pIC50: −log10 of the molar value.
Experiments:
[1] = molecular target: T1, Bcl-B (Homo sapiens, UniProt Q9HD36); conditions: read-out: inhibitory concentration of 50% (IC50), displacing BH3 peptides; cited from earlier work
T1 sequence (Q9HD36 1-204): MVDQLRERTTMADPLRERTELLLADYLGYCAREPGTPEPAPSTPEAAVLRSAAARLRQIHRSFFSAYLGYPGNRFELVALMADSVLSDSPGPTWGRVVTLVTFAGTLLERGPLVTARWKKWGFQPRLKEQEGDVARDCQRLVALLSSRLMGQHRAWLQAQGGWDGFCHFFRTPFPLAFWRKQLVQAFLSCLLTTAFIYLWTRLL

[2] = molecular target: T2, Bfl-1 (Homo sapiens, UniProt Q16548); conditions: read-out: inhibitory concentration of 50% (IC50), displacing BH3 peptides; cited from earlier work
T2 sequence (Q16548 1-175): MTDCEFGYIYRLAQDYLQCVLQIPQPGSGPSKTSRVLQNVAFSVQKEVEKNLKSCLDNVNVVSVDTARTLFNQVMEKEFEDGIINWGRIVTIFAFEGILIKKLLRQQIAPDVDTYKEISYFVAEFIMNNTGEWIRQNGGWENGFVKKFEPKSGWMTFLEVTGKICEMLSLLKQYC

[3] = molecular target: Bcl-XL (Homo sapiens, UniProt Q07817); conditions: read-out: inhibitory concentration of 50% (IC50), displacing BH3 peptides; cited from earlier work
[4] = tested on: Jurkat cells; assay: anti-CD3-induced Ca2+ elevation by digital imaging; type: cell-based; conditions: Jurkat cells; 60 μM peptide with Chariot reagent
Protocol: (§1) FIGS. 6A-D illustrates peptide 2 (SEQ ID NO:3) Reverses Bcl-2's Inhibition of Anti-CD3-Induced Ca^2+Elevation. (A) Representative Ca^2+ traces (each the mean of ˜65 cells) recording anti-CD3 (arrow, time of addition)-induced Ca^2+ elevation in Bcl-2(+) WEHI7.2 cells. Peptide (60 μM) uptake was facilitated by Chariot reagent. (B) Peak anti-CD3 induced Ca^2+ elevation in Bcl-2(−) and Bcl-2(+) WEHI7.2 cells treated with peptides as in (A) [mean±SEM, five experiments for Bcl-2(−) and seven experiments for Bcl-2(+) cells, with mean 68 cells per sample per experiment]. (C) Representative Ca^2+ traces in Jurkat cells (mean 85 cells each). Treatment conditions are the same as in (A), except that a control involving addition of peptide 2 without Chariot reagent has been added. (D) Peak anti-CD3-induced Ca^2+ elevation in Jurkat cells treated with peptides as in (C) (mean±SEM, seven experiments, mean 81 cells per sample per experiment).
(§2) Next we investigated whether peptide 2 also reverses Bcl-2's inhibitory effect on Ca^2+ release through the IP3R in Bcl-2(+) and (−) WEHI7.2 clones, newly derived WEHI7.2 mixed populations exogenously expressing Bcl-2, and Jurkat cells. Optimal conditions for peptide delivery and anti-CD3 concentration were determined in preliminary experiments. Peptide delivery in the lipid bilayer is 100%, whereas the penetration of peptide 2 into cells is much less, accounting for the lesser effect in cells. Therefore, a higher concentration of peptide (60 μM) was delivered into cells using the Chariot delivery reagent. Cytoplasmic Ca^2+ concentration was continuously measured at a single-cell level by digital imaging during anti-CD3 treatment. Representative Ca^2+ traces from Bcl-2(+) WEHI7.2 cells are shown in FIG. 6A, and the average Ca^2+ elevation induced by anti-CD3 in seven experiments is summarized in FIG. 6B. Observed variations in lag phase are at least partially attributable to the fact that lymphocytes are only loosely adherent to coverslips and thus rapid buffer exchange is not possible during antibody additions. Peptide 2 enhanced anti-CD3-induced Ca^2+ elevation in Bcl-2(+) WEHI7.2 cells by 40%. […] Peptide 2 had no effect on Ca^2+ elevation when added to the cells in the absence of the Chariot reagent. […] The low Bcl-2 level in Jurkat cells and the barely detectable endogenous Bcl-2 in Bcl-2(−) WEHI7.2 cells are consistent with the higher amplitude and longer duration of the Ca^2+ response in these cells in contrast to Bcl-2(+) WEHI7.2 cells (compare FIGS. 6A and 6B to FIGS. 6C and 6D). Thus, peptide 2 modulated anti-CD3-induced Ca^2+ elevation in both Bcl-2(+) WEHI7.2 cells and Jurkat cells, consistent with the ability of peptide 2 to disrupt Bcl-2-IP3R interaction.

[5] = tested on: WEHI7.2 cells; assay: anti-CD3-induced Ca2+ elevation by digital imaging; type: cell-based; conditions: Bcl-2(+) WEHI7.2 cells; 60 μM peptide with Chariot reagent
Protocol: as §1, §2

[6] = tested on: Jurkat cells; assay: anti-CD3-induced apoptosis (apoptotic nuclei); type: cell-based; conditions: 60 μM peptide with Chariot, 5 μg/ml anti-CD3, 24 hr, anti-CD3 alone 20%-30%
Protocol: FIG. 7 illustrates peptide 2 Enhances Anti-CD3-Induced Apoptosis in Bcl-2-Positive Cells (A) Typical apoptotic nuclear morphology (arrow, Hoechst 33342 stain) 24 hr after 5 μg/ml anti-CD3 treatment of Jurkat cells. Scale bars, 10 μm. (B) Bcl-2(−) and Bcl-2(+) WEHI7.2 cells were pre-incubated±60 μM peptides plus Chariot reagent and then incubated with 20 μg/ml anti-CD3 for 24 hr. Symbols represent the percentage of cells (mean±SEM) with apoptotic nuclei in three experiments for Bcl-2(−) and five experiments for Bcl-2(+) cells (200 cells counted per coverslip). (C) Jurkat cells were pre-incubated±60 μM peptides±Chariot reagent and then incubated with 5 μg/ml anti-CD3 for 24 hr. Symbols represent the percentage of cells (mean±SEM) with apoptotic nuclei in five experiments (240 cells counted per coverslip).
Peptide 2 also attenuated Bcl-2's inhibition of anti-CD3-induced apoptosis in Jurkat cells. In preliminary studies (data not shown), we tested several anti-CD3 concentrations. Higher concentrations of anti-CD3 induced high levels of apoptosis that might obscure the effect of the peptide. We therefore used 5 μg/ml anti-CD3, sufficient to induce 20%-30% apoptosis.

[7] = molecular target: T3, Bcl-2-IP3R interaction (Homo sapiens, UniProt P10415); assay: coimmunoprecipitation of Bcl-2 with IP3R from cell extracts; type: binding; design: expressed in transfected cells; host or cells: Bcl-2(+) WEHI7.2 cells; also Jurkat cells (endogenous Bcl-2); conditions: 400 μM peptide; Bcl-2(+) WEHI7.2 and Jurkat cell extracts
Protocol: FIG. 4 illustrates an IP3R Peptide Inhibits Bcl-2-IP3R Interaction but Not Bim-Bcl-2 Interaction. (A and D) IP3R was immunoprecipitated from extracts of Bcl-2(+) WEHI7.2 cells (C) or Jurkat cells in the presence of 400 μM peptides. Peptide 2, but not peptide 1 or control peptide, inhibited the Bcl-2-IP3R coimmunoprecipitation. Summary of Bcl-2 immunoblot signal intensities in three […] experiments identical to (C) (mean±SEM). (B) Bcl-2 was immunoprecipitated from Bcl-2(+) WEHI7.2 cell extracts in the presence of 400 μM peptides, and coimmunoprecipitation of Bim was detected by anti-Bim immunoblotting. […] (E) Summary of Bim immunoblot signal intensities in three experiments identical to (B) (mean±SEM).
Since the IP3R binding region was narrowed down to the 80 amino acid subdomain 3a1 (aa 1347-1426), we designed two 20 amino acid peptides (peptide 1, aa 1365-1384 (SEQ ID NO:2); peptide 2, aa 1389-1408 (SEQ ID NO:3)) based on the degree of homology in this region among different IP3R isoforms. […] The inhibitory effect of peptide 2 on Bcl-2-IP3R interaction was also detected in coimmunoprecipitation assays employing both Bcl-2(+) WEHI7.2 cells (FIGS. 4A and 4B) and Jurkat cells (FIG. 4C). […]

[8] = molecular target: T3, Bcl-2-IP3R interaction; assay: GST pull-down of Bcl-2 from Bcl-2(+) WEHI7.2 extracts with GST-IP3R domain 3; type: binding, mouse; design: expressed in transfected cells; host or cells: Bcl-2(+) WEHI7.2 cells (source of Bcl-2); conditions: 1 mM peptide
Excerpt: To identify where Bcl-2 interacts on the IP3R, we used a series of GST-IP3R fusion constructs corresponding to five fragments covering the first N-terminal 2216 amino acids and 1 fragment corresponding to the last 160 amino acids of mouse IP3R type 1 (FIG. 3). These fragments are located in the cytoplasm and coincide with “natural” domains generated by limited proteolysis. The transmembrane domain was not included. After purification, fragments migrated as single prominent bands corresponding to their expected molecular weights, although some minor degradation products were detected.
The first set of GST pull-down experiments utilized extracts of Bcl-2(+) WEHI7.2 cells and Jurkat cells as two independent sources of Bcl-2. Cell extracts were incubated with GST-IP3R fragments prebound to glutathione sepharose resin, with equal loading of the GST-IP3R fragments. […] These experiments were repeated a total of five times with the same result. It is important to note that, following incubation of cell extracts with GST-IP3R fragments on the glutathione sepharose resin, the resin was washed extensively.
Since the IP3R binding region was narrowed down to the 80 amino acid subdomain 3a1 (aa 1347-1426), we designed two 20 amino acid peptides (peptide 1, aa 1365-1384 (SEQ ID NO:2); peptide 2, aa 1389-1408 (SEQ ID NO:3)) based on the degree of homology in this region among different IP3R isoforms. Also, preference was given to regions that have beta-turn and/or α-helical structures, rather than random-coil or nonstructured sequences, expecting that one or both of the peptides could inhibit the Bcl-2-IP3R interaction. Furthermore, the C-terminal region of domain 3a1 was not selected because of its lower accessibility and unpredictable secondary structure (Invitrogen PeptideSelect Design Tool). The scrambled sequence of peptide 2 was also synthesized and used as a control. […] The inhibitory effect of peptide 2 on Bcl-2-IP3R interaction was also detected in coimmunoprecipitation assays employing both Bcl-2(+) WEHI7.2 cells (FIGS. 4A and 4B) and Jurkat cells (FIG. 4C). […]

T3 sequence (P10415 whole entry): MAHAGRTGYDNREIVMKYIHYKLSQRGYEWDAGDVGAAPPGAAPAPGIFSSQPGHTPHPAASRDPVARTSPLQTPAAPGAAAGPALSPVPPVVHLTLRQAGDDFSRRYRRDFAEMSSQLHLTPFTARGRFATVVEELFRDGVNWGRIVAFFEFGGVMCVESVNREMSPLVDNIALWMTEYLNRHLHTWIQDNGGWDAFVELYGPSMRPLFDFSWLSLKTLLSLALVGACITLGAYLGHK
Sequence of Bcl-XL (Q07817 whole entry, species assumed): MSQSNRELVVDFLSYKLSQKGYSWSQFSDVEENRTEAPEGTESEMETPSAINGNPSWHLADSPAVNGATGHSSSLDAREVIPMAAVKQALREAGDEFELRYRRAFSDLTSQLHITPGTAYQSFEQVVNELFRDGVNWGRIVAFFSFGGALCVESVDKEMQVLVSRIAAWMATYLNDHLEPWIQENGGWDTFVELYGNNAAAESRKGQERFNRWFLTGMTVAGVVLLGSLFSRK

Compound	pIC50 [1]	pIC50 [2]	pIC50 [3]	enhancement of anti-CD3-induced Ca2+ elevation [4]	enhancement of anti-CD3-induced Ca2+ elevation [5]	anti-CD3-induced apoptosis (percentage of apoptotic cells) [6]	inhibition of Bcl-2-IP3R coimmunoprecipitation [7]	amount of Bcl-2 bound to GST-IP3R domain 3 [8]
Cc1cc2c(C(C)C)c(O)c(O)c(C=O)c2c(O)c1-c1c(C)cc2c(C(C)C)c(O)c(O)c(C=O)c2c1O [Gossypol, 1,6,7,1′,6′,7′-Hexahydroxy-5,5′-diisopropyl-3,3′-dimethyl-[2,2′]binaphthalenyl-8,8′-dicarbaldehyde]	~6.30	~6.30	~6.30	–	–	–	–	–
MDENSPLMYHIHLVELLAVC (listed as Homo sapiens) [peptide 1, 20 amino acid peptide, aa 1365-1384 of IP3R subdomain 3a1]	–	–	–	did not	did not enhance	did not have an effect	did not inhibit	partially inhibited

From US8445441B2, “Inhibitors of BCL-2” (Case Western Reserve University, priority 2007, dated 2013)
